Reference: patent US9975869B2 (Sphaera Pharma Pvt. Ltd., priority 2013, dated 2018)

System: AMPK
Experiment: AMPK activation potential, cell based ELISA (Phospho-AMPKα Thr172) in Hep G2 cells
Conditions: 10 nm concentration; Hep G2 liver cells; % activity with DMSO control as 100%; 30 min incubation for Epicatechin analogs
Experimental: Testing of Compounds for Their AMPK Activation Potential
AMPK activation potential of the compounds was evaluated using cell based ELISA. Hepatoma (Hep G2) liver cells were maintained in a T 75 culture flask-containing 25 mM DMEM+10% fetal calf serum. The cells were maintained in a T 75 culture flask-containing medium (DMEM+10% fetal calf serum). On reaching a confluence of 70 to 80%, the cells were seeded in a 96 well plate at a density of 40,000 cells per well in 25 mM DMEM+10% FCS medium. The plates were then incubated at 37° C. with 5% CO2 for 24 hours. Various concentrations of drugs were prepared in DMSO and diluted to required concentration with the medium and incubated at 37° C. with 5% CO2 for 30 min and 1 h for Epicatechin analogs and 11-BHP analogs respectively. Metformin was used as positive control. Cells were fixed with 4% formaldehyde for 30 minutes at room temperature and washed three times with PBS containing 0.1% Triton X-100. Endogenous peroxidase was quenched with 1% H2O2 in PBS-T (0.1% Tween 20) for 30 minutes and washed three times in PBS-T. Cells were blocked with 1% BSA in PBS-T for 1 hour. The cells were incubated with 1:1000 dilution primary antibody (Phospho-AMPKα (Thr172) Rabbit mAb, Cell Signaling in PBS-T containing 5% BSA at 4° C. overnight. The cells were then washed three times with PBS-T for 5 minutes and incubated with 1:1000 dilution secondary antibody (Anti-rabbit IgG, HRP-linked Antibody, Cell Signaling) in PBS-T with 1% BSA for 1 hour at RT. Cells were washed three times with PBS-T for 5 minutes The cells were incubated with 100 μl TMB substrate solution for 30 minutes and the reaction was stopped with 100 μl of 2N H2SO4. Then the plate was read at 450 nm using ELISA plate reader and absorbance recorded. % activity was calculated using DMSO control as 100%. All compounds of the present invention, as exemplified and encompassed are found to be active.

## Cc1cc([C@H]2Oc3cc(O)cc(O)c3C[C@H]2O)cc(O)c1O (racemic) [Compound 1035, Cis (±) (2-(3,4-dihydroxy-5-methylphenyl)chromane-3,5,7-triol]
  % pAMPK(at 10 nm): 102%

## Cc1c([C@H]2Oc3cc(O)cc(O)c3C[C@H]2O)ccc(O)c1O (racemic) [Compound 1031, Cis (±) 2-(3,4-dihydroxy-2-methylphenyl)chroman-3,5,7-triol]
  % pAMPK(at 10 nm): 101%

## O=C(O[C@@H]1Cc2c(O)cc(O)cc2O[C@@H]1c1ccc(O)c(O)c1)c1cccnc1 [Compound 1071, (2R,3R)-2-(3,4-dihydroxyphenyl)-5,7-dihydroxychroman-3-yl nicotinate]
  % pAMPK(at 10 nm): 102%

## COc1cccc([C@H]2Oc3cc(O)ccc3C[C@H]2O)c1 (racemic) [Compound 1017]
  % pAMPK(at 10 nm): 110%

## Oc1cc(O)c2c(c1)O[C@H](c1ccccc1)[C@H](O)C2 (racemic) [Compound 1015, Cis (±) 2-phenylchroman-3,5,7-triol]
  % pAMPK(at 10 nm): 119%

## [2H]C1([2H])c2c(O)cc(O)cc2O[C@H](c2ccc(O)c(O)c2)[C@@H]1O [Compound 1036, (2R,3R)-2-(3,4-dihydroxyphenyl)chromane-4,4-d2-3,5,7-triol]
  % pAMPK(at 10 nm): 105%

## Oc1cc(O)c2c(c1)O[C@H](c1ccc(O)c(O)c1F)[C@H](O)C2 (racemic) [Compound 1032, Cis (±) 2-(2-fluoro-3,4-dihydroxyphenyl)chroman-3,5,7-triol]
  % pAMPK(at 10 nm): 104%

## COc1ccc([C@H]2Oc3cc(OC)ccc3C[C@H]2O)cc1 [Compound 1070, (2R,3R)-7-methoxy-2-(4-methoxyphenyl)chroman-3-ol]
  % pAMPK(at 10 nm): 126%

## Oc1ccc2c(c1)OC(c1ccc(F)c(O)c1)[C@H](O)C2 (stereo in doubt) [Compound 1029, 2-(4-fluoro-3-hydroxyphenyl)chromane-3,7-diol]
  % pAMPK(at 10 nm): 93%

## Oc1cc(O)c2c(c1)O[C@H](c1cc(O)c(O)cc1F)[C@H](O)C2 (racemic) [Compound 1033, Cis (±) 2-(2-fluoro-4,5-dihydroxyphenyl)chromane-3,5,7-triol]
  % pAMPK(at 10 nm): 107%

## COc1ccc2c(c1)O[C@H](c1cccc(O)c1)[C@H](O)C2 (racemic) [Compound 1018]
  % pAMPK(at 10 nm): 100%

## CC(C)OC(=O)O[C@@H]1Cc2c(O)cc(O)cc2O[C@@H]1c1ccc(O)c(O)c1 [Compound 1055, (2R,3R)-2-(3,4-dihydroxyphenyl)-5,7-dihydroxychroman-3-yl isopropyl carbonate]
  % pAMPK(at 10 nm): 105%

## COC(=O)Oc1cc(OC(=O)OC)c2c(c1)O[C@H](c1ccc(O)c(O)c1)[C@H](O)C2 [Compound 1058, (2R,3R)-2-(3,4-dihydroxyphenyl)-3-hydroxychromane-5,7-diyl dimethyl bis(carbonate)]
  % pAMPK(at 10 nm): 117%
